# Results taken from article PMC7822892, “Avian antimicrobial peptides: in vitro and in ovo characterization and protection from early chick mortality caused by yolk sac infection” (Scientific Reports, 2021).
# Where a SMILES comes first, the peptide text is derived from it. Where no end group is shown, it is not given here.
# Legend:
# [1] = test system: human PBMCs, monocyte chemotactic protein 1 (MCP-1); set-up: method as in PMID 19524300; conditions: in vitro stimulation of human PBMCs for 24 h; cited from earlier work
# HD11 cells = assay: HD11 cytotoxicity, WST-1 assay; conditions: 1.875 to 30 µg/ml, 24 h
# [2] = test system: Clostridium perfringens JP26; conditions: Clostridium perfringens JP26, 10^4–10^5 CFU/ml in PBS pH 7.4, 2 h at 37 °C, duplicate, plating
# E. coli EC317 = conditions: EC317, 2 h, 240 µg/ml
# [3] = test system: human peripheral blood mononuclear cells (PBMCs) and chicken erythrocytes; conditions: cited from earlier work
# [4] = test system: all tested bacteria (E. coli, S. Enteritidis, S. Typhimurium, C. jejuni, C. perfringens); conditions: 10^4–10^5 CFU/ml, 2 h
Compound,Effect on growth and metabolic activity of HD11 cells (in words) (HD11 cells),Minimum inhibitory concentration (MIC) that kills 100% bacteria [2],further results
CATH-2(1–21): analog of CATH-2 (literature values),,,MCP-1 production (in words) [1]: significant induction
"CATH-2: mature, full-length chicken cathelicidin-2 (literature values)",,,MCP-1 production (in words) [1]: significant induction
DTLACRQSHGSCSFVACRAPSVDIGTCRGGKLKCCKWAPSS (cysteines drawn unpaired) [ABD9],not shown any significant effect,> 55.97 µM,Growth inhibition (E. coli EC317): 40–90%
CC[C@H](C)[C@H](NC(=O)[C@H](CC(C)C)NC(=O)[C@H](Cc1c[nH]cn1)NC(=O)[C@H](CO)NC(=O)[C@@H]1CCCN1C(=O)[C@H](CS)NC(=O)CNC(=O)CNC(=O)[C@H](Cc1ccccc1)NC(=O)[C@H](Cc1c[nH]cn1)NC(=O)[C@H](CS)NC(=O)[C@H](CO)NC(=O)CNC(=O)CNC(=O)[C@H](CCCCN)NC(=O)[C@H](CS)NC(=O)[C@H](Cc1ccccc1)NC(=O)[C@H](CC(C)C)NC(=O)[C@H](CCSC)NC(=O)[C@H](CC(=O)O)NC(=O)[C@@H](N)CCCNC(=N)N)C(=O)N[C@@H](CCCCN)C(=O)N[C@H](C(=O)NCC(=O)N[C@@H](CO)C(=O)N[C@@H](CS)C(=O)N[C@@H](Cc1ccccc1)C(=O)NCC(=O)N[C@@H](Cc1ccccc1)C(=O)N[C@@H](CCCNC(=N)N)C(=O)N[C@@H](CO)C(=O)N[C@@H](CS)C(=O)N[C@@H](CS)C(=O)N[C@@H](CCCCN)C(=O)N[C@@H](Cc1c[nH]c2ccccc12)C(=O)N1CCC[C@H]1C(=O)N[C@@H](Cc1c[nH]c2ccccc12)C(=O)N[C@@H](CC(N)=O)C(=O)N[C@@H](C)C(=O)O)C(C)C [ABD2] (H-RDMLFCKGGSCHFGGCPSHLIKVGSCFGFRSCCKWPWNA-OH),not shown any significant effect,> 55.50 µM,
RFGRFLRKIRRFRPK [CATH-2(1–15)],,> 118.05 µM,"Toxicity (in words) [3]: non-toxic or very mildly toxic; MIC over tested Gram-negative bacteria ([4]; E. coli, S. Enteritidis, S. Typhimurium, C. jejuni): 0.92 to 7.38 µM"
CC[C@H](C)[C@H](NC(=O)[C@H](CCCNC(=N)N)NC(=O)[C@H](CCCCN)NC(=O)[C@H](CS)NC(=O)[C@H](CS)NC(=O)[C@H](CC(C)C)NC(=O)[C@H](Cc1ccc(O)cc1)NC(=O)[C@H](Cc1ccccc1)NC(=O)[C@H](CCCNC(=N)N)NC(=O)[C@H](CO)NC(=O)[C@H](CS)NC(=O)[C@H](CCCCN)NC(=O)CNC(=O)[C@H](CO)NC(=O)[C@@H](NC(=O)[C@H](CC(C)C)NC(=O)[C@@H](NC(=O)[C@H](CC(C)C)NC(=O)[C@H](CO)NC(=O)[C@@H]1CCCN1C(=O)[C@H](CS)NC(=O)[C@H](CCCCN)NC(=O)[C@H](CC(C)C)NC(=O)[C@H](Cc1ccccc1)NC(=O)[C@H](C)NC(=O)[C@H](CS)NC(=O)[C@H](Cc1ccccc1)NC(=O)CNC(=O)[C@H](CO)NC(=O)[C@H](CCCCN)NC(=O)[C@H](CCCNC(=N)N)NC(=O)[C@H](Cc1ccccc1)NC(=O)[C@H](CS)NC(=O)[C@H](CC(=O)O)NC(=O)[C@H](CO)NC(=O)[C@H](CCCCN)NC(=O)[C@H](CCCNC(=N)N)NC(=O)CN)[C@@H](C)O)[C@@H](C)CC)C(=O)N[C@@H](Cc1c[nH]c2ccccc12)C(=O)O [ABD1] (H-GRKSDCFRKSGFCAFLKCPSLTLISGKCSRFYLCCKRIW-OH),not shown any significant effect,0.83 µM,MIC over all tested bacteria ([4]; five strains): 0.83 to 1.66 µM
SPIHACRYQRGVCIPGPCRWPYYRVGSCGSGLKSCCVRNRWA (cysteines drawn unpaired) [ABD6],not shown any significant effect,50.59 µM,
